Values of other authors, collected in PubChem BioAssay AID1259409 (Chemical Carcinogenesis Research Information System (CCRIS), 2018).

Tested on: rodent chemically induced tumor inhibition, incidence and multiplicity
Assay: CCRIS tumor inhibitor studies
Conditions: Promoter: NONE USED

CC/C(=C(\c1ccccc1)c1ccc(OCCN(C)C)cc1)c1ccccc1
tumour outcome (control, treated, inhibition, significance) (Carcinogen: N-METHYL-N-NITROSOUREA, 684-93-5, Dose [Inhibitor]: 50 UG DISSOLVED IN SMALL VOLUME OF ETHANOL AND DILUTED IN 1% GELATIN-0.9% NACL TO INJECTION VOLUME OF 0.2 ML, DAILY STAR, Route [Inhibitor]: INJECTION, Species: RAT, Strain/Sex: SPRAGUE-DAWLEY/FEMALE, Target Tissue: Type of Lesion: MAMMARY GLAND: TUMOR, Dose [Carcinogen]: 5 MG/100 G BW AT 0, 4 AND 8 WK OF STUDY STARTING SIMULTANEOUSLY WITH AGENT TREATMENT): 86%, 9%, 90%, not calculated | tumour outcome (control, treated, inhibition, significance) (Carcinogen: N-NITROSO-N-METHYLUREA, 684-93-5, Dose [Inhibitor]: 0, 0.5 MG/KG OF DIET FOR 3 MO BEGINNING 1 WK POST CARCINOGEN DOSE (STUDY DURATION: 100 D), Route [Inhibitor]: ORAL, Species: RAT, Strain/Sex: SPRAGUE-DAWLEY/FEMALE, Target Tissue: Type of Lesion: MAMMARY GLAND: TUMOR, Dose [Carcinogen]: 50 MG/KG BW ONCE): 100%, 75%, 25%, p=0.03 | tumour outcome (control, treated, inhibition, significance) (Carcinogen: N-NITROSO-N-METHYLUREA, 684-93-5, Dose [Inhibitor]: 0, 0.5 MG/KG OF DIET FOR 4.5 MO BEGINNING 1 WK POST CARCINOGEN DOSE (STUDY DURATION: 100 D), Route [Inhibitor]: ORAL, Species: RAT, Strain/Sex: SPRAGUE-DAWLEY/FEMALE, Target Tissue: Type of Lesion: MAMMARY GLAND: TUMOR, Dose [Carcinogen]: 50 MG/KG BW ONCE): 96%, 50%, 48%, p=0.003 | tumour outcome (control, treated, inhibition, significance) (Carcinogen: N-NITROSO-N-METHYLUREA, 684-93-5, Dose [Inhibitor]: 0, 1 MG/KG OF DIET FOR 4.5 MO BEGINNING 1 WK POST CARCINOGEN DOSE (STUDY DURATION: 100 D), Route [Inhibitor]: ORAL, Species: RAT, Strain/Sex: SPRAGUE-DAWLEY/FEMALE, Target Tissue: Type of Lesion: MAMMARY GLAND: TUMOR, Dose [Carcinogen]: 50 MG/KG BW ONCE): 96%, 42%, 56%, p<0.001 | tumour outcome (control, treated, inhibition, significance) (Carcinogen: NONE USED, Dose [Inhibitor]: 0, 125 UG/D FROM SUSTAINED RELEASE SILASTIC CAPSULES ADMINISTERED TO OVARIECTOMIZED MICE FOR 17 MO BEGINNING AT 3 MO OF, Route [Inhibitor]: IMPLANT, Species: MOUSE, Strain/Sex: C3H/OUJ/FEMALE, Target Tissue: Type of Lesion: MAMMARY GLAND: TUMOR): 50%, 22%, 56%, p<0.003 | tumour outcome (control, treated, inhibition, significance) (Carcinogen: NONE USED, Dose [Inhibitor]: 0, 125 UG/D FROM SUSTAINED RELEASE SILASTIC CAPSULES FOR 3 MO BEGINNING AT 4 MO OF AGE (STUDY DURATION: 18 MO), Route [Inhibitor]: IMPLANT, Species: MOUSE, Strain/Sex: C3H/OUJ/FEMALE, Target Tissue: Type of Lesion: MAMMARY GLAND: TUMOR): 100%, 20%, 80%, p<0.001 | tumour outcome (control, treated, inhibition, significance) (Carcinogen: NONE USED, Dose [Inhibitor]: 0, 125 UG/D FROM SUSTAINED RELEASE SILASTIC CAPSULES FOR 6 MO BEGINNING AT 3 MO OF AGE (STUDY DURATION: 18 MO), Route [Inhibitor]: IMPLANT, Species: MOUSE, Strain/Sex: C3H/OUJ/FEMALE, Target Tissue: Type of Lesion: MAMMARY GLAND: TUMOR): 100%, 26%, 74%, p<0.001 | tumour outcome (control, treated, inhibition, significance) (Carcinogen: NONE USED, Dose [Inhibitor]: 0, 125 UG/D FROM SUSTAINED RELEASE SILASTIC CAPSULES FOR 12 MO BEGINNING AT 3 MO OF AGE (STUDY DURATION: 18 MO), Route [Inhibitor]: IMPLANT, Species: MOUSE, Strain/Sex: C3H/OUJ/FEMALE, Target Tissue: Type of Lesion: MAMMARY GLAND: TUMOR): 100%, 24%, 76%, p<0.001 | tumour outcome (control, treated, inhibition, significance) (Carcinogen: NONE USED, Dose [Inhibitor]: 0, 125 UG/D FROM SUSTAINED RELEASE SILASTIC CAPSULES FOR 17 MO BEGINNING AT 3 MO OF AGE (STUDY DURATION: 27 MO), Route [Inhibitor]: IMPLANT, Species: MOUSE, Strain/Sex: C3H/OUJ/FEMALE, Target Tissue: Type of Lesion: MAMMARY GLAND: TUMOR): 100%, 20%, 80%, p<0.003 | tumour outcome (control, treated, inhibition, significance) (Carcinogen: PROGESTERONE, 57-83-0, Dose [Inhibitor]: 0, 125 UG/D FROM SUSTAINED RELEASE SILASTIC CAPSULES FOR 3 MO PRIOR TO CARCINOGEN TREATMENT (STUDY DURATION: 18 MO), Route [Inhibitor]: IMPLANT, Species: MOUSE, Strain/Sex: C3H/OUJ/FEMALE, Target Tissue: Type of Lesion: MAMMARY GLAND: TUMOR, Dose [Carcinogen]: 20 MG ADMINISTERED IN SUSTAINED RELEASE SILASTIC CAPSULES FOR A ONE MO DURATION EVERY OTHER MO): 100%, 92%, 8%, not significant | tumour outcome (control, treated, inhibition, significance) (Carcinogen: PROGESTERONE, 57-83-0, Dose [Inhibitor]: 0, 125 UG/D FROM SUSTAINED RELEASE SILASTIC CAPSULES FOR 6 MO PRIOR TO CARCINOGEN TREATMENT (STUDY DURATION: 18 MO), Route [Inhibitor]: IMPLANT, Species: MOUSE, Strain/Sex: C3H/OUJ/FEMALE, Target Tissue: Type of Lesion: MAMMARY GLAND: TUMOR, Dose [Carcinogen]: 20 MG ADMINISTERED IN SUSTAINED RELEASE SILASTIC CAPSULES FOR A ONE MO DURATION EVERY OTHER MO): 100%, 52%, 48%, p<0.002 | tumour outcome (control, treated, inhibition, significance) (Carcinogen: PROGESTERONE, 57-83-0, Dose [Inhibitor]: 0, 125 UG/D FROM SUSTAINED RELEASE SILASTIC CAPSULES FOR 12 MO BEGINNING AT 3 MO OF AGE (STUDY DURATION: 21 MO), Route [Inhibitor]: IMPLANT, Species: MOUSE, Strain/Sex: C3H/OUJ/FEMALE, Target Tissue: Type of Lesion: MAMMARY GLAND: TUMOR, Dose [Carcinogen]: 20 MG ADMINISTERED IN SUSTAINED RELEASE SILASTIC CAPSULES GIVEN FOR A ONE MONTH DURATION EVERY OTHER MO BEGINNING AT 3 M): 100%, 88%, 12%, not significant | tumour outcome (control, treated, inhibition, significance) (Carcinogen: SUBCUTANEOUS IMPLANT, Dose [Inhibitor]: ZERANOL, 26538-44-3, Route [Inhibitor]: 0, 5 MG 2/WK TO DAY 32 THEN 1/WK TO DAY 202 (STUDY DURATION: 202 D), Species: HAMSTER, Strain/Sex: SUBCUTANEOUS, Target Tissue: Type of Lesion: LIVER: HEPATOCELLULAR ADENOMA, Dose [Carcinogen]: NONE USED): 56%, 0%, 100%, not calculated | tumour outcome (control, treated, inhibition, significance) (Carcinogen: ZERANOL, 26538-44-3, Dose [Inhibitor]: 0, 5 MG 2/WK TO DAY 32 THEN 1/WK TO DAY 202 (STUDY DURATION: 202 D), Route [Inhibitor]: SUBCUTANEOUS, Species: HAMSTER, Strain/Sex: ARMENIAN/FEMALE, Target Tissue: Type of Lesion: LIVER: HEPATOCELLULAR ADENOMA, Dose [Carcinogen]: 36 MG IMPLANTED ON DAYS 0 AND 94): 57%, 0%, 100%, not calculated | tumour outcome (control, treated, inhibition, significance) (Carcinogen: ZERANOL, 26538-44-3, Dose [Inhibitor]: 0, 5 MG 2/WK TO DAY 32 THEN 1/WK TO DAY 202 (STUDY DURATION: 202 D), Route [Inhibitor]: SUBCUTANEOUS, Species: HAMSTER, Strain/Sex: ARMENIAN/FEMALE, Target Tissue: Type of Lesion: LIVER: HEPATOCELLULAR CARCINOMA, Dose [Carcinogen]: 36 MG IMPLANTED ON DAYS 0 AND 94): 6/7 (86%), 0/4 (0%), 100%, not calculated | tumour outcome (control, treated, inhibition, significance) (Carcinogen: ZERANOL, 26538-44-3, Dose [Inhibitor]: 0, 5 MG 2/WK TO DAY 32 THEN 1/WK TO DAY 202 (STUDY DURATION: 202 D), Route [Inhibitor]: SUBCUTANEOUS, Species: HAMSTER, Strain/Sex: ARMENIAN/MALE, Target Tissue: Type of Lesion: LIVER: HEPATOCELLULAR CARCINOMA, Dose [Carcinogen]: 36 MG IMPLANTED ON DAYS 0 AND 94): 3/9 (33%), 0/4 (0%), 100%, not calculated
